Reference: ChEMBL document CHEMBL3046361, “Coumarin: a potential nucleus for anti-inflammatory molecules” (Med Chem Res, 2013)

What was measured:
Rattus norvegicus [1] = assay: Anti-inflammatory activity in albino Rattus norvegicus (rat) assessed as inhibition of carrageenan-induced paw edema at 10 mg/kg, po administered 1 hr prior to carrageenan-challenge measured after 3 hr relative to control; format: functional
Rattus norvegicus [2] = assay: Anti-inflammatory activity in albino Rattus norvegicus (rat) assessed as inhibition of carrageenan-induced paw edema at 100 mg/kg, po administered 30 min prior to carrageenan-challenge measured after 5 hr relative to control; format: functional
Rattus norvegicus [3] = assay: Anti-inflammatory activity in Rattus norvegicus (rat) assessed as inhibition of carrageenan-induced paw edema at 100 mg/kg, po relative to control; format: functional
Rattus norvegicus [4] = assay: Anti-inflammatory activity in Rattus norvegicus (rat) assessed as inhibition of carrageenan-induced paw edema relative to control; format: functional
Rattus norvegicus [5] = assay: Anti-inflammatory activity in Rattus norvegicus (rat) assessed as inhibition of carrageenan-induced paw edema at 0.1 mmoles/kg relative to control; format: functional; conditions: read-out: INH
[6] = target: T1, Seed linoleate 13S-lipoxygenase-1 (Glycine max) (UniProt P08170); assay: Inhibition of Glycine max (soybean) lipooxygenase
T1 sequence (whole entry): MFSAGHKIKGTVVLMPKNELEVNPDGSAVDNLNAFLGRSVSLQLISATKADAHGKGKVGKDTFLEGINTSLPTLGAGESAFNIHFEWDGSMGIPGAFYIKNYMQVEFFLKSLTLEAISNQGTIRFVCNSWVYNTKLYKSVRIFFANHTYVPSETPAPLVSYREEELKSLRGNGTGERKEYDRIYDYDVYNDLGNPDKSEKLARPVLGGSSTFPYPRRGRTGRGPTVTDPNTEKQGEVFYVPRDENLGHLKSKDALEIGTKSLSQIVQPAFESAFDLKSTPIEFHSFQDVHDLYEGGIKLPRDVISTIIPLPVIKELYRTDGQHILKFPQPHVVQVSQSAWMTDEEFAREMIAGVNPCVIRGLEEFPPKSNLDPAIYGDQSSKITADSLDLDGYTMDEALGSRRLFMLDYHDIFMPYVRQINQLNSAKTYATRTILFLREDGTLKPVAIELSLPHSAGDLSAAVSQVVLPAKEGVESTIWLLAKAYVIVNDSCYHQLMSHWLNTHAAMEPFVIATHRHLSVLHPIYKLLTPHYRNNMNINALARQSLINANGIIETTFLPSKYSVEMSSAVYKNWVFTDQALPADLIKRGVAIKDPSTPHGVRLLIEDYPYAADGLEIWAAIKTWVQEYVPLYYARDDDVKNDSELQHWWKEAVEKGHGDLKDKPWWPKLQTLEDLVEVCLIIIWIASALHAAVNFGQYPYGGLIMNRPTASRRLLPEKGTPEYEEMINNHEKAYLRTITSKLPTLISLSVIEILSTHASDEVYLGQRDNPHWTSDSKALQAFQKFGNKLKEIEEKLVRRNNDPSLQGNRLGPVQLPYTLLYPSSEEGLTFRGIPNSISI

Rattus norvegicus [7] = assay: Anti-inflammatory activity in Rattus norvegicus (rat) assessed as inhibition of carrageenan-induced paw edema at […] relative to control; format: functional
Rattus norvegicus [8] = assay: Anti-inflammatory activity in albino Rattus norvegicus (rat) assessed as inhibition of carrageenan-induced paw edema at 10 mg/kg, po administered 30 min prior to carrageenan-challenge measured after 5 hr relative to control; format: functional
[9] = target: Prostaglandin G/H synthase 1 (Homo sapiens) (UniProt P23219); assay: Inhibition of COX1 (unknown origin); conditions: concentration not given here
Chain of Prostaglandin G/H synthase 1 (Homo sapiens) (P23219 whole entry): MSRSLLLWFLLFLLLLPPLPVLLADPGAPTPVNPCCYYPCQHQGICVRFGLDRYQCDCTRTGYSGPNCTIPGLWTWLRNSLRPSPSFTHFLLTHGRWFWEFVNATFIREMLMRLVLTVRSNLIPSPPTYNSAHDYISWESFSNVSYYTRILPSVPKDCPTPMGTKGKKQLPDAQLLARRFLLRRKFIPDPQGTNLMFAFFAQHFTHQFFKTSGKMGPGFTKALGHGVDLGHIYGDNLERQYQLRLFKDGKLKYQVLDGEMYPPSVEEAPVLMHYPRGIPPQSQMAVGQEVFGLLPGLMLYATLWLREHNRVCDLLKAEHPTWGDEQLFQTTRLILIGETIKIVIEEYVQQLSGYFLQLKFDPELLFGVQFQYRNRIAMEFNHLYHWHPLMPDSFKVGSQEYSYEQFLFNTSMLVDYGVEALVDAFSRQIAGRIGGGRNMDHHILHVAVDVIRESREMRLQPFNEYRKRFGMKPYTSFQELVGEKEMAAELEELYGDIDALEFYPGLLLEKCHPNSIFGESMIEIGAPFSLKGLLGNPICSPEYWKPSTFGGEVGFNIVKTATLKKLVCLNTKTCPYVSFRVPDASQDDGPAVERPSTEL

PBMC = assay: Anti-inflammatory activity in Homo sapiens (human) PBMC assessed as inhibition of LPS-induced TNFalpha production; format: functional, cell-based

## COc1ccc2c(C3=NOSN3c3ccccc3)cc(=O)oc2c1
Rattus norvegicus [1]
  inhibition in vivo at 10 mg/kg: 55.3%

## CC(=O)N1N=C(c2cc3cc(Br)ccc3oc2=O)CC1c1ccc([N+](=O)[O-])cc1 (stereo unspecified)
Rattus norvegicus [2]
  inhibition in vivo at 100 mg/kg: 66.5%

## O=c1oc2ccccc2cc1/N=C/c1ccc(Cl)c(Cl)c1
Rattus norvegicus [3]
  inhibition in vivo at 100 mg/kg: 60%

## O=C(O)c1ccccc1NC(=O)c1cc2cc(Cl)ccc2oc1=O
Rattus norvegicus [4]
  inhibition (INH): 54%

## CCOC(=O)c1cc(=O)oc2c3c(c4ccccc4c12)OC(C)(C)[C@@H](O)[C@H]3O
Rattus norvegicus [5]
  inhibition in vivo at 100 µmol/kg: 59%
[6]
  inhibition: 100%

## CC1=NC(c2cc(=O)oc3ccccc23)NO1 (stereo unspecified)
[6]
  inhibition: 77%

## COc1ccc2c(C)cc(=O)oc2c1-c1cc(-c2ccc(Cl)cc2)on1
Rattus norvegicus [7]
  inhibition (INH): 68%

## COc1ccc2c(c1)c(CC(=O)O)c(C)n2C(=O)c1ccc(Cl)cc1 [INDOMETHACIN]
Rattus norvegicus [1]
  inhibition in vivo at 10 mg/kg: 56.5%
Rattus norvegicus [8]
  inhibition in vivo at 10 mg/kg: 71%

## O=c1oc2ccccc2cc1/N=C/c1ccc(Cl)cc1
Rattus norvegicus [3]
  inhibition in vivo at 100 mg/kg: 75%

## Cc1c/c(=N\c2ccc([N+](=O)[O-])cc2)oc2cc(O)ccc12
[9]
  inhibition: 39%

## COC(=O)/N=C(/N)c1cc(=O)oc2ccccc12
[6]
  inhibition: 76%

## CN(C)C(=O)Oc1cc2oc(=O)c(-c3cccnc3)cc2cc1Cl
PBMC
  IC50: 450 nM

## O=c1ccc2ccc(/C=N/O)cc2o1
[9]
  inhibition: 78.6%

## N/C(=N/C(=O)Oc1ccccc1)c1cc(=O)oc2ccccc12
Rattus norvegicus [4]
  inhibition (INH): >80%

## CCCC(=O)N/N=C/c1coc2ccccc2c1=O
Rattus norvegicus [4]
  inhibition (INH): 80.78%

## COc1ccc(-c2cc(-c3c(OC)ccc4c(C)cc(=O)oc34)no2)cc1
Rattus norvegicus [7]
  inhibition (INH): 72%

## CN/N=C/c1ccc2ccc(=O)oc2c1
Rattus norvegicus [4]
  inhibition (INH): 54%

## Cc1cc(=O)oc2cc(NCCN(CCN)CCN)ccc12
[6]
  inhibition: 92.4%

## CN(C)N/C(=N/O)c1cc(=O)oc2ccccc12
Rattus norvegicus [4]
  inhibition (INH): >80%

## CCOC(=O)c1cc(=O)oc2c3c(c4ccccc4c12)OC(C)(C)[C@@H](O)[C@H]3OC(=O)c1cccc(Cl)c1
Rattus norvegicus [5]
  inhibition in vivo at 100 µmol/kg: 59%
[6]
  inhibition: 100%

## CO/N=C/c1ccc2ccc(=O)oc2c1
Rattus norvegicus [4]
  inhibition (INH): 54%

## CCNC(=O)Nc1ccc(-c2cc3ccc(OC(=O)N(CC)CC)cc3oc2=O)cc1
PBMC
  IC50: 320 nM

## CCN(CC)C(=O)Oc1ccc2c(C)c(Cc3ccc(F)cc3)c(=O)oc2c1
PBMC
  IC50: 2400 nM
